# Data reported in PMC5530730, “^11C-Labeling of Aryl Ketones as Candidate Histamine Subtype-3 Receptor PET Radioligands through Pd(0)-Mediated ^11C-Carbonylative Coupling” (Molecules : A Journal of Synthetic Chemistry and Natural …, 2017).
# Read-outs that look alike come from different tables or passages of the source.
# Experiments:
# H3 receptors = H3 receptors (Cavia porcellus, UniProt Q9JI35); assay: Competitive binding, displacement of [3H]α-methylhistamine, PDSP; parameters: species or system guinea pig
# Sequence of H3 receptors (Q9JI35 whole entry): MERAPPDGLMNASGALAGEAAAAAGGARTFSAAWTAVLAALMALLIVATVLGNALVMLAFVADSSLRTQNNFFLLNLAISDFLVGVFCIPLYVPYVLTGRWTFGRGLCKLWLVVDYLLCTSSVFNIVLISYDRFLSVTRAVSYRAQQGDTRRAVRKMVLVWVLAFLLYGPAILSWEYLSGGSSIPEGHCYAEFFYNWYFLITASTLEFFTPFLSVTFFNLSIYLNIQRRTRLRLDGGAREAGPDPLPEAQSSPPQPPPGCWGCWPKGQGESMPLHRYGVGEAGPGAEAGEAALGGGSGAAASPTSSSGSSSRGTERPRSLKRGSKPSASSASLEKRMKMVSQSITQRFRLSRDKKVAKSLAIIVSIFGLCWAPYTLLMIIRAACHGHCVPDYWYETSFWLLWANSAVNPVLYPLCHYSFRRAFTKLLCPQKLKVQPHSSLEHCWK
# H2R = H2R (Homo sapiens, UniProt P25021); assay: Competitive binding, displacement of [3H]tiotidine, PDSP; conditions: human recombinant receptors expressed in HEK293T cells, read-out: Affinity (Ki, nM) H2
# Sequence of H2R (P25021 whole entry): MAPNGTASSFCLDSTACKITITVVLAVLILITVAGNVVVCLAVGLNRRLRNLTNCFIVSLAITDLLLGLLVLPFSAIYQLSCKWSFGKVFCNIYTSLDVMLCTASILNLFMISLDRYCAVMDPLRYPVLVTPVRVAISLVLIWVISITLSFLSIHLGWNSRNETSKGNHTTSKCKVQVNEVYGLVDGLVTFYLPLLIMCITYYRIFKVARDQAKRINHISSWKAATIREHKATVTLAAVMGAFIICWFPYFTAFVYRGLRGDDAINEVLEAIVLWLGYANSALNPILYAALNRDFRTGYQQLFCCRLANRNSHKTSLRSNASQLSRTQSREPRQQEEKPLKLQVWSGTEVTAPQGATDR
# H1R = H1R (Homo sapiens, UniProt P35367); assay: Competitive binding, displacement of [3H]pyrilamine, PDSP; conditions: human recombinant receptors expressed in HEK293T cells, read-out: Affinity (Ki, nM) H1
# Sequence of H1R (P35367 whole entry): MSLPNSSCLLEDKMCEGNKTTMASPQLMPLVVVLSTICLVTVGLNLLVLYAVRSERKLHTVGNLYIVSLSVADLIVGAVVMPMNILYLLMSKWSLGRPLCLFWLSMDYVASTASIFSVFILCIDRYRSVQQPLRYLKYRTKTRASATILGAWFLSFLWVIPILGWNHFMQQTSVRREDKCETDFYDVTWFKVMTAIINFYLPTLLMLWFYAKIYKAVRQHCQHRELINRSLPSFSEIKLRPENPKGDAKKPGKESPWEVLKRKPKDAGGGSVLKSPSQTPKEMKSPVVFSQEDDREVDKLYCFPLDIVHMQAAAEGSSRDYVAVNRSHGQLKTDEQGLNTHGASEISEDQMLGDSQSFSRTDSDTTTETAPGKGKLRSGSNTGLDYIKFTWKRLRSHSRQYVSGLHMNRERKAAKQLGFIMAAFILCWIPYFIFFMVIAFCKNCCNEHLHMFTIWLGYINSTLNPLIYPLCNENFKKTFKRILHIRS
# [1] = target: cloned human H3 receptors; parameters: method as in PMID 15634000; conditions: [3H]α-methylhistamine; membranes of C6 cells expressing cloned human H3 receptors; read-out: Affinity (Ki, nM) H3 (lit); cited from earlier work
# [2] = [3H]α-methylhistamine, guinea pig cells expressing H3 receptors, NIMH PDSP, read-out: Affinity (Ki, nM) H3
SMILES,Ki (H3 receptors; [2]) [nM],Ki (H2R) [nM],Ki (H1R) [nM],Ki (H3 receptors) [nM],Ki [1] [nM]
C[C@@H]1CCCN1CCc1cc2cc(C(=O)c3ccc([N+](=O)[O-])cc3)ccc2o1 [Ligand 1],2.1,706,1030,,
C[C@@H]1CCCN1CCc1cc2cc(C(=O)c3ccc(F)cc3)ccc2o1 [Ligand 2],,923,7050,4.2,
C[C@@H]1CCCN1CCc1cc2cc(C(=O)c3cccc(F)c3)ccc2o1 [Ligand 3],4.9,1370,> 10000,,0.1
"C[C@@H]1CCCN1CCc1cc2cc(C(=O)c3cc(F)cc(F)c3)ccc2o1 [Ligand 4, (R)-(3,5-Difluorophenyl)(2-(2-(2-methylpyrrolidin-1-yl)ethyl)benzofuran-5-yl)methanone]",2.9,630,> 10000,,0.09
